Measurements reported in patent US20080318884A1, “Methods for Altering Gene Expression and Methods of Treatment Utilizing Same” (THE UAB RESEARCH FOUNDATION, priority 2005, published 2008).

Legend:
[1] = test system: wild type Hdh mRNA; assay: QSI treatment of control ES cells expressing a single wild type Hdh allele, Hdh mRNA by quantitative real time PCR; assay type: cell-based, mouse; conditions: QSI for six hours, high glutamine, FIG. 2C
Method: (§1) ES cell lines hemizygous for HdhQ150 were treated with an inhibitor of the glutaminyl-tRNA synthetase, QSI (5′-O-[N-(L-glutaminyl)sulfamoyl]adenosine) for six hours in the presence of high levels of glutamine. […] In this case the long CAG repeat is used to represent a rare cluster of codons. This diminishment in disease allele expression was accomplished in the presence of high amounts of glutamine (1.2 grams/ml) showing that reduction of expression can be attained by inhibition of a tRNA synthetase while providing normal amounts of the amino acid which is a substrate for the synthetase reaction. […]
(§2) Since the quantitative real time PCR (QRTPCR) assay (described below) cannot distinguish between different alleles of Hdh it is necessary that the ES cells only express a single allele. […] These engineered ES cells express only the long repeat version of Hdh and lack wild type Hdh mRNA as determined by RT-PCR across the repeat region.
(§3) Finally, a quantitative real time PCR (QRTPCR) assays has been developed for both Hprt and Hdh mRNA. […] During the PCR reaction the polymerase destroys the oligo releasing the […] to allow fluorescence. Fluorescence is measured though every cycle and the point when it increases beyond threshold is logarithmically related to the amount of starting RNA. […]

[2] = test system: HdhQ150 mRNA; assay: QSI treatment of ES cells hemizygous for HdhQ150, Hdh mRNA by quantitative real time PCR; assay type: cell-based, mouse; conditions: ES cells hemizygous for HdhQ150, QSI for six hours, high glutamine (1.2 grams/ml), FIG. 2C
Method: as §1, §2, §3

`NC(=O)CC[C@H](N)C(=O)NS(=O)(=O)OC[C@H]1O[C@@H](n2cnc3c(N)ncnc32)[C@H](O)[C@@H]1O` [QSI, 5′-O-[N-(L-glutaminyl)sulfamoyl]adenosine] was tested, and the “wild type Hdh mRNA levels” value [1] was “effect of QSI in lowering Hdh mRNA levels was dependent on the presence of the long CAG repeat” and the “HdhQ150 mRNA levels” value [2] was “lowered by QSI treatment in a dose dependent manner”.
